Source: US11559575B2, “Multi-epitopic peptide compounds and vaccines against leishmaniasis” (INSTITUT DE RECHERCHE POUR LE DEVELOPPEMENT, priority 2018, dated 2023)
Entries after “also recorded” stand apart in the source; their conditions may differ.

Assays:
HLA alleles of class II = experiment: Affinity of epitopes for HLA alleles of class II; type: binding, human
HLA alleles of class I = experiment: Affinity of epitopes for HLA alleles of class I; type: binding, human; conditions: for Concatenation affinity allele CII: PSA KC-2.6 Peptide CII; for Affinity for the HLA alleles of class I: H2B-1 epitopes, Table 1
Source text: The multiepitopic peptide compounds (24 to 40-mer), having a high affinity with a maximized number of HLA molecules of class I and of class II, such as the affinities for the alleles HLA of class I and HLA of class II of the epitopes in the peptides of the sequences SEQ ID NO: 22, 23, 65, 66, 69, 73, 77, 96, 97, 137, 138, and 157, 185, have a high immunoprevalent potential corresponding to an optimal vaccine coverage, in particular for the populations concerned. The degree of coverage of the peptide compounds of the invention show a very high added value compared with the peptides of the prior art.

[1] = LmlRAB-IIB Peptide CII, Table 2

IVADHMPHL (Leishmania major) [SEQ ID NO: 89]
Concatenation affinity for HLA alleles of class II (HLA alleles of class II; LmLRAB-IIA core, Table 2): HLA-DRB1*03:01,; also recorded: HLA-DRB1*13:02,; also recorded: HLA-DRB3*01:01
Affinity for HLA alleles of class I (HLA alleles of class I; LmLRAB-IIA core, Table 2): HLA-A*02:01,; also recorded: HLA-A*02:03,; also recorded: HLA-A*02:06

LTDEKTSLV (listed as Leishmania infantum) [SEQ ID NO: 148]
Concatenation affinity for HLA alleles of class II (HLA alleles of class II; PSA KC-2.6 core, Table 3): HLA-DRB1*04:01
Affinity HLA alleles of class I (HLA alleles of class I; PSA KC-2.6 core, Table 3): HLA-A*02:01,; also recorded: HLA-A*02:03,; also recorded: HLA-A*02:06,; also recorded: HLA-A*68:02

HSMIRDLDF (listed as Leishmania infantum) [SEQ ID NO: 173]
Concatenation affinity for HLA alleles of class II (HLA alleles of class II; PSA KC-2.7 core, Table 3): HLA-DRB4*01:01
Affinity for HLA alleles of class I (HLA alleles of class I; PSA KC-2.7 core, Table 3): HLA-B*35:01,; also recorded: HLA-B*58:01

VHYSEVSAK (Leishmania major) [SEQ ID NO: 136]
Concatenation affinity for HLA alleles of class I (HLA alleles of class I; [1]): HLA-A*03:01

MIRDLDFSNM (listed as Leishmania infantum) [SEQ ID NO: 181]
Concatenation affinity for HLA alleles of class I (HLA alleles of class I; PSA KC-2.7 peptides, Table 3): HLA-B*15:01

FTDVHYSEV (Leishmania major) [SEQ ID NO: 121]
Concatenation affinity for HLA alleles of class II (HLA alleles of class II; LmlRAB-IIB core, Table 2): HLA-DRB1*07:01,; also recorded: HLA-DRB1*09:01,; also recorded: HLA-DRPA*01:03/; also recorded: DPB1*04:01,; also recorded: HLA-DPA1*01:03/; also recorded: DPB1*02:01
Affinity for HLA alleles of class I (HLA alleles of class I; LmlRAB-IIB core, Table 2): HLA-A*02:01,; also recorded: HLA-A*02:03,; also recorded: HLA-A*02:06,; also recorded: HLA-A*35:01,; also recorded: HLA-A*68:02

ARSARSGEGY (listed as Leishmania infantum) [SEQ ID NO: 151]
Concatenation affinity allele CII (HLA alleles of class I; Table 3): HLA-B*15:01

SENAIVTSR (Leishmania major) [SEQ ID NO: 134]
Concatenation affinity for HLA alleles of class I (HLA alleles of class I; [1]): HLA-A*31:01, HLA-B*44:03, HLA-A*68:01

SDYSHSMIR (listed as Leishmania infantum) [SEQ ID NO: 177]
Concatenation affinity for HLA alleles of class II (HLA alleles of class II; PSA KC-2.7 core, Table 3): HLA-DRB1*07:01,; also recorded: HLA-DRB5*01:01
Affinity for HLA alleles of class I (HLA alleles of class I; PSA KC-2.7 core, Table 3): HLA-A*31:01,; also recorded: HLA-A*68:01

TSRKDQEEV [SEQ ID NO: 135]
Concatenation affinity for HLA alleles of class I (HLA alleles of class I; [1]): HLA-B*15:01, HLA-A*30:01, HLA-A*68:02

TMKSMSHRTM (Leishmania major) [SEQ ID NO: 21]
Affinity for the HLA alleles of class I (HLA alleles of class I): HLA-B*15:01,; also recorded: HLA-B*08:01

EVFDLFTDV (Leishmania major) [SEQ ID NO: 120]
Affinity for HLA alleles of class I (HLA alleles of class I; LmlRAB-IIB core, Table 2): HLA-A*02:03,; also recorded: HLA-A*02:06,; also recorded: HLA-A*68:02

MPSGSDYSH (listed as Leishmania infantum) [SEQ ID NO: 182]
Concatenation affinity for HLA alleles of class I (HLA alleles of class I; PSA KC-2.7 peptides, Table 3): HLA-B*35:01, HLA-B*53:01

FLTDEKTSLV (listed as Leishmania infantum) [SEQ ID NO: 153]
Concatenation affinity allele CII (HLA alleles of class I; Table 3): HLA-A*01:01, HLA-A*02:01

VQEEVFDLF (Leishmania major) [SEQ ID NO: 126]
Affinity for HLA alleles of class I (HLA alleles of class I; LmlRAB-IIB core, Table 2): HLA-A*02:06

RSARSGEGY (listed as Leishmania infantum) [SEQ ID NO: 155]
Concatenation affinity allele CII (HLA alleles of class I; Table 3): HLA-A*30:02, HLA-B*15:01, HLA-B*57:01,; also recorded: HLA-B*58:01

SMSHRTMKSM (Leishmania major) [SEQ ID NO: 19]
Affinity for the HLA alleles of class I (HLA alleles of class I): HLA-B*15:01,; also recorded: HLA-B*57:01,; also recorded: HLA-A*02:03,; also recorded: HLA-B*08:01

SMIRDLDFS (listed as Leishmania infantum) [SEQ ID NO: 184]
Concatenation affinity for HLA alleles of class I (HLA alleles of class I; PSA KC-2.7 peptides, Table 3): HLA-A*02:03, HLA-A*02:06

NMGLLLSGT (listed as Leishmania infantum) [SEQ ID NO: 183]
Concatenation affinity for HLA alleles of class I (HLA alleles of class I; PSA KC-2.7 peptides, Table 3): HLA-A*02:02

RSARSGEGYF (listed as Leishmania infantum) [SEQ ID NO: 156]
Concatenation affinity allele CII (HLA alleles of class I; Table 3): HLA-B*15:01, HLA-B*58:01

KAINAQMSM (Leishmania major) [SEQ ID NO: 3]
Affinity for the HLA alleles of class II (HLA alleles of class II; H2B-1 epitopes, Table 1): DRB4*01:01
Affinity for the HLA alleles of class I (HLA alleles of class I): HLA-B*58:01,; also recorded: HLA-B*57:01,; also recorded: HLA-B*15:01,; also recorded: HLA-A*30:01

DVHYSEVSA (Leishmania major) [SEQ ID NO: 128]
Concatenation affinity for HLA alleles of class I (HLA alleles of class I; [1]): HLA-A*68*02

ARSGEGYFL (listed as Leishmania infantum) [SEQ ID NO: 152]
Concatenation affinity allele CII (HLA alleles of class I; Table 3): HLA-B*39:01
